Data reported in PubChem BioAssay (NCI).
“And” between values parts separate entries of the source, which are not always exact repeats. Identical values can stand only once.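 48-hour exposure; five concentrations; linearly interpolated endpoints. GI50 = concentration required for 50% inhibition of growth. TGI: concentration producing complete growth inhibition.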

Assays:
Assay in all cases: growth of human tumour cells (NCI), 48 h
HS 578T breast = test system: HS 578T breast
U251 CNS = test system: U251 CNS
M14 melanoma = test system: M14 melanoma
786-0 renal = test system: 786-0 renal
HCT-116 colon = test system: HCT-116 colon
NCI-H522 lung = test system: NCI-H522 lung
NCI-H460 lung = test system: NCI-H460 lung
HOP-62 NSCLC = test system: HOP-62 NSCLC
LOX IMVI melanoma = test system: LOX IMVI melanoma
SK-MEL-28 melanoma = test system: SK-MEL-28 melanoma

SMILES | GI50 (HS 578T breast) | TGI (HS 578T breast) | GI50 (U251 CNS) | TGI (U251 CNS) | GI50 (M14 melanoma) | TGI (M14 melanoma) | GI50 (786-0 renal) | TGI (786-0 renal) | GI50 (HCT-116 colon) | TGI (HCT-116 colon) | GI50 (NCI-H522 lung) | TGI (NCI-H522 lung) | GI50 (NCI-H460 lung) | TGI (NCI-H460 lung) | GI50 (HOP-62 NSCLC) | TGI (HOP-62 NSCLC) | GI50 (LOX IMVI melanoma) | TGI (LOX IMVI melanoma) | GI50 (SK-MEL-28 melanoma) | TGI (SK-MEL-28 melanoma)
CC[n+]1c(/C=C/c2ccc(N3CCCC3)cc2)cccc1/C=C/c1ccc(N2CCCC2)cc1 | 0.273 µM | 1.46 µM | 0.202 µM | 1.04 µM | 0.345 µM | 1.85 µM | 0.247 µM | 1.2 µM | 0.0838 µM | 1.28 µM | 0.239 µM | 2.08 µM | 0.293 µM | 1.15 µM | 0.414 µM | 1.46 µM | 0.22 µM and 0.145 µM | 1.62 µM and 1.45 µM | 0.194 µM and 0.169 µM | 0.374 µM and 0.321 µM
COc1ccc(/C=C/C(=O)c2ccc(B(O)O)cc2)cc1O | 12.6 µM | > 100 µM | 9.37 µM | 27 µM | 8.03 µM | 29.6 µM | 18.7 µM | 53.7 µM | 2.64 µM | 10.1 µM | 17.8 µM | 45.1 µM | 19.8 µM | > 83.4 µM | 18.5 µM | > 57.2 µM | 4.66 µM | 19.1 µM | 22.3 µM | > 89.5 µM
Nc1n[nH]c2ccc([C@H]3[C@@H]4C5CCC(C5)[C@@H]4c4c(ccc5[nH]ncc45)N3S(=O)(=O)C3CC3)cc12 (stereo not given in full) | 0.17 µM | 3.31 µM | 0.208 µM | 17.5 µM | 0.146 µM | 15.1 µM | 0.366 µM | 22.3 µM | 0.195 µM | > 9.99 µM | 0.183 µM | 2.56 µM | 0.181 µM | 8.38 µM | 0.335 µM | 20.7 µM | 0.303 µM | 6.45 µM | 2 µM | 26 µM
COc1ccc2c(c1)OC(N)=C(C#N)C2c1ccc(F)c(F)c1 (stereo not given) | 0.426 µM | > 46.3 µM | 0.425 µM | > 45.5 µM | 0.325 µM | > 100 µM | 0.595 µM | > 96.6 µM | 0.41 µM | 25.5 µM | 0.255 µM | 9.25 µM | 0.41 µM | 41.6 µM | 0.515 µM | > 92.2 µM | 0.589 µM | > 100 µM | 3.43 µM | > 100 µM
O=C(NC(=S)Nc1ccc(-c2nc3ccccc3[nH]2)cc1)c1ccc2ccccc2c1 | 3.09 µM | 9.94 µM | 3.62 µM | 18.1 µM | 4.79 µM | > 100 µM | 1.88 µM | 3.52 µM | 2.56 µM | 7.33 µM | 18.9 µM | > 100 µM | 4.29 µM | > 100 µM | 2.41 µM | 5.58 µM | 2.14 µM | 4.74 µM | 3.86 µM | 23.4 µM
CN1CCN(C(=O)OCc2nc3c(N4CCOCC4)nc(-c4ccccc4)nc3n2C)CC1 | 1.23 µM | 3.93 µM | 1.52 µM | 3.17 µM | 1.07 µM | 2.44 µM | 0.993 µM | 2.36 µM | 0.207 µM | 0.648 µM | 0.596 µM | 2.4 µM | 1.48 µM | 3.06 µM | 1.53 µM | 3.79 µM | 0.176 µM | 0.443 µM | 1.48 µM | 2.81 µM
O=C(CSc1nc2ccc([N+](=O)[O-])cc2[nH]1)Nc1ccc([N+](=O)[O-])cc1 | 2.31 µM | 10.2 µM | 2.62 µM | 15.5 µM | 2.73 µM | 19.9 µM | 3.02 µM | 13.5 µM | 2.7 µM | > 32.6 µM | 1.69 µM | 9.01 µM | 2.9 µM | 12.3 µM | 2.32 µM | 12.1 µM | 2.75 µM | 12.2 µM | 2.82 µM | 14.2 µM
Nc1nc(N)c2cc(Sc3ccc(Cl)cc3)ccc2n1 | 1.72 µM | 12.4 µM | 0.526 µM | 1.99 µM | 0.535 µM | 1.98 µM | 0.582 µM | 2.04 µM | 0.327 µM | 1.39 µM | 1.35 µM | 3.87 µM | 0.314 µM | 11.9 µM | 1.49 µM | 14.9 µM | 0.35 µM | 4.07 µM | 2.68 µM | 8.05 µM
Clc1ccc(Nc2ncnc3ccccc23)cc1 | 37.9 µM | > 100 µM | 72.5 µM | > 100 µM | 54.9 µM | > 100 µM | 64.7 µM | > 100 µM | 81.5 µM | > 100 µM | 15.5 µM | 55.8 µM | 43.7 µM | > 100 µM | > 100 µM | > 100 µM | 46.8 µM | > 100 µM | > 100 µM | > 100 µM
COc1cccc(Nc2ncnn3ccc(CN4CC[C@@H](N)[C@H](O)C4)c23)c1 | 0.698 µM and 0.395 µM | 5.18 µM and 2.69 µM | 14.4 µM and > 5.46 µM | 49.3 µM and > 10 µM | 20.4 µM and > 5.03 µM | 36 µM and > 10 µM | 1.08 µM and 1.18 µM | 20.6 µM and > 10 µM | 6.69 µM and 2.55 µM | 26.4 µM and > 6.8 µM | 0.0245 µM and 0.0175 µM | 15.1 µM and > 4.56 µM | 18.5 µM and > 4.66 µM | 68.1 µM and > 9.16 µM | 4.22 µM and 0.506 µM | 27.3 µM and > 10 µM | 4.58 µM and 1.33 µM | 21.1 µM and > 5.65 µM | 17 µM and > 5.4 µM | 31.1 µM and > 10 µM
